# Test results taken from US6737383B1, “Herbicidal oxadiazolidines” (priority 1999, dated 2004).
# Tests used:
# [1] = system: smallflower flatsedge; experiment: Test B flood test smallflower flatsedge; type: in vivo, Cyperus difformis
# In short: (§1)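 Flood test on plants grown to the 2-leaf stage; treated plants kept in greenhouse twelve to sixteen days, then visually rated against controls on a 0 (no effect) to 10 (complete control) scale.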
# [2] = system: wild oat; experiment: Test B pre/postemergence wild oat; type: in vivo, Avena fatua; conditions: for Plant response rating, Wild oats: Rate 250 g/ha
# In short: (§2)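 Response is a visual 0-to-10 score relative to untreated plants, where 0 means no effect and 10 means complete control, taken twelve to sixteen days after application. Treatments went onto soil at planting and onto foliage of 1- to 4-leaf plants, using a surfactant-containing non-phytotoxic solvent.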
# [3] = system: velvetleaf; experiment: Test B pre/postemergence velvetleaf; type: in vivo, Abutilon theophrasti; conditions: for Plant response rating, Velvetleaf: Rate 250 g/ha
# In short: as §2
# [4] = system: wheat; experiment: Test B pre/postemergence wheat; type: in vivo, Triticum aestivum; conditions: for Plant response rating, Wheat: Rate 250 g/ha
# In short: as §2
# [5] = system: soybean; experiment: Test B pre/postemergence soybean; type: in vivo, Glycine max
# In short: as §2
# [6] = system: cocklebur; experiment: Test B pre/postemergence cocklebur; type: in vivo, Xanthium strumarium
# In short: as §2
# [7] = system: giant foxtail; experiment: Test B pre/postemergence giant foxtail; type: in vivo, Setaria faberii
# In short: as §2
# [8] = system: morningglory; experiment: Test B pre/postemergence morningglory; type: in vivo, Ipomoea hederacea
# In short: as §2
# [9] = system: sugar beet; experiment: Test B pre/postemergence sugar beet; type: in vivo, Beta vulgaris; conditions: for Plant response rating, Sugarbeets: Rate 250 g/ha
# In short: as §2
# [10] = system: corn; experiment: Test B pre/postemergence corn; type: in vivo, Zea mays
# In short: as §2
# [11] = system: bedstraw; experiment: Test B pre/postemergence bedstraw; type: in vivo, Galium aparine
# In short: as §2
# [12] = system: pigweed; experiment: Test B pre/postemergence pigweed; type: in vivo, Amaranthus retroflexus
# In short: as §2
# [13] = system: rice; experiment: Test B flood test rice; type: in vivo, Oryza sativa
# In short: as §1
# [14] = system: rape; experiment: Test B pre/postemergence rape; type: in vivo, Brassica napus
# In short: as §2
# [15] = system: blackgrass; experiment: Test B pre/postemergence blackgrass; type: in vivo, Alopecurus myosuroides
# In short: as §2
# [16] = system: surinam grass; experiment: Test B pre/postemergence surinam grass; type: in vivo, Brachiaria decumbens
# In short: as §2
# [17] = Postemergence (flood test species), Rate 125 g/ha, scale of 0 to 10 where 0 is no effect and 10 is complete control
# [18] = Rate 62 g/ha, Postemergence section, flood test species, scale of 0 to 10 where 0 is no effect and 10 is complete control
# [19] = Rate 250 g/ha, Postemergence (flood test), scale 0 to 10, 0 is no effect, 10 is complete control
# [20] = Rate 500 g/ha, listed under Postemergence (flood test species), scale 0 to 10, 0 no effect, 10 complete control
# [21] = Postemergence, Rate 125 g/ha, scale of 0 to 10 where 0 is no effect and 10 is complete control
# [22] = Preemergence, Rate 62 g/ha, scale 0 to 10 (0 no effect, 10 complete control)
# [23] = Preemergence, Rate 125 g/ha, 0 is no effect, 10 is complete control
# [24] = Preemergence, scale of 0 to 10 where 0 is no effect and 10 is complete control
# [25] = Rate 62 g/ha, Postemergence, scale of 0 to 10 where 0 is no effect and 10 is complete control
# [26] = Postemergence, scale 0 to 10, 0 is no effect, 10 is complete control
# [27] = Rate 500 g/ha, Postemergence, scale 0 to 10, 0 no effect, 10 complete control
# [28] = Preemergence, Rate 125 g/ha, scale 0 to 10 (0 no effect, 10 complete control)
# [29] = Preemergence, Rate 250 g/ha, scale of 0 to 10 where 0 is no effect and 10 is complete control
# [30] = Rate 250 g/ha, Postemergence, scale 0 to 10, 0 is no effect, 10 is complete control
# [31] = Postemergence, Rate 250 g/ha, scale 0 to 10, 0 no effect, 10 complete control
# [32] = Postemergence, Rate 62 g/ha, scale 0 to 10, 0 is no effect, 10 is complete control
# [33] = Rate 125 g/ha, Postemergence, scale 0 to 10, 0 no effect, 10 complete control
smiles,measurement,setting,value
CCc1noc(CC)c1-n1c(=O)on(C(=O)N(c2ccc(F)cc2)C(C)C)c1=O [Compound 102],S. Flatsedge plant response rating,[1]; [17],0
same,S. Flatsedge plant response rating,[1]; [18],0
same,"Plant response rating, S. Flatsedge",[1]; [19],0
same,S. Flatsedge plant response rating,[1]; [20],0
same,Wild oats plant response rating,[2]; [21],0
same,Wild oats plant response rating,[2]; [22],0
same,Wild oats plant response rating (0 to 10 scale),[2]; [23],0
same,"Plant response rating, Wild oats",[2]; [24],0
same,Wild oats plant response rating,[2]; [25],0
same,"Plant response rating, Wild oats",[2]; [26],0
same,Wild oats plant response rating,[2]; [27],0
same,Velvetleaf plant response rating,[3]; [21],0
same,Velvetleaf plant response rating,[3]; [22],0
same,Velvetleaf plant response rating (0 to 10 scale),[3]; [23],0
same,"Plant response rating, Velvetleaf",[3]; [24],0
same,Velvetleaf plant response rating,[3]; [25],0
same,"Plant response rating, Velvetleaf",[3]; [26],0
same,Velvetleaf plant response rating,[3]; [27],3
same,Wheat plant response rating,[4]; [21],0
same,Wheat plant response rating,[4]; [22],0
same,Wheat plant response rating (0 to 10 scale),[4]; [23],0
same,"Plant response rating, Wheat",[4]; [24],0
same,Wheat plant response rating,[4]; [25],0
same,"Plant response rating, Wheat",[4]; [26],0
same,Wheat plant response rating,[4]; [27],0
same,Soybean plant response rating,[5]; [21],0
same,Soybean plant response rating,[5]; [22],0
same,"Plant response rating, Soybean",[5]; [28],0
same,"Plant response rating, Soybean",[5]; [29],0
same,Soybean plant response rating,[5]; [25],0
same,"Plant response rating, Soybean",[5]; [30],0
same,Soybean plant response rating,[5]; [27],0
same,Cocklebur plant response rating,[6]; [21],0
same,Cocklebur plant response rating,[6]; [31],0
same,Cocklebur plant response rating,[6]; [22],0
same,"Plant response rating, Cocklebur",[6]; [28],0
same,"Plant response rating, Cocklebur",[6]; [29],0
same,Cocklebur plant response rating,[6]; [25],0
same,Cocklebur plant response rating,[6]; [27],0
same,Giant foxtail plant response rating,[7]; [21],0
same,Giant foxtail plant response rating,[7]; [31],0
same,Giant foxtail plant response rating,[7]; [22],2
same,"Plant response rating, Giant foxtail",[7]; [28],4
same,"Plant response rating, Giant foxtail",[7]; [29],9
same,Giant foxtail plant response rating,[7]; [25],0
same,Giant foxtail plant response rating,[7]; [27],2
same,Morningglory plant response rating,[8]; [21],0
same,Morningglory plant response rating,[8]; [31],1
same,Morningglory plant response rating,[8]; [22],0
same,"Plant response rating, Morningglory",[8]; [28],0
same,"Plant response rating, Morningglory",[8]; [29],0
same,Morningglory plant response rating,[8]; [25],0
same,Morningglory plant response rating,[8]; [27],3
same,Sugarbeets plant response rating,[9]; [21],0
same,Sugarbeets plant response rating,[9]; [22],0
same,Sugarbeets plant response rating (0 to 10 scale),[9]; [23],0
same,"Plant response rating, Sugarbeets",[9]; [24],0
same,Sugarbeets plant response rating,[9]; [25],0
same,"Plant response rating, Sugarbeets",[9]; [26],0
same,Sugarbeets plant response rating,[9]; [27],0
same,Corn plant response rating,[10]; [21],0
same,Corn plant response rating,[10]; [31],0
same,Corn plant response rating,[10]; [22],0
same,"Plant response rating, Corn",[10]; [28],0
same,"Plant response rating, Corn",[10]; [29],0
same,Corn plant response rating,[10]; [25],0
same,Corn plant response rating,[10]; [27],2
same,Bedstraw plant response rating,[11]; [32],0
same,Bedstraw plant response rating,[11]; [31],0
same,Bedstraw plant response rating,[11]; [22],0
same,"Plant response rating, Bedstraw",[11]; [28],0
same,"Plant response rating, Bedstraw",[11]; [29],0
same,Bedstraw plant response rating,[11]; [33],0
same,Bedstraw plant response rating,[11]; [27],3
same,Redroot pigweed plant response rating,[12]; [21],0
same,Redroot pigweed plant response rating,[12]; [22],0
same,"Plant response rating, Redroot pigweed",[12]; [28],0
same,"Plant response rating, Redroot pigweed",[12]; [29],0
same,Redroot pigweed plant response rating,[12]; [25],0
same,"Plant response rating, Redroot pigweed",[12]; [30],0
same,Redroot pigweed plant response rating,[12]; [27],0
same,Rice plant response rating,[13]; [17],0
same,Rice plant response rating,[13]; [18],0
same,"Plant response rating, Rice",[13]; [19],0
same,Rice plant response rating,[13]; [20],0
same,Rape plant response rating,[14]; [21],0
same,Rape plant response rating,[14]; [31],0
same,Rape plant response rating,[14]; [22],0
same,"Plant response rating, Rape",[14]; [28],0
same,"Plant response rating, Rape",[14]; [29],0
same,Rape plant response rating,[14]; [25],0
same,Rape plant response rating,[14]; [27],0
same,Blackgrass plant response rating,[15]; [21],0
same,Blackgrass plant response rating,[15]; [31],0
same,Blackgrass plant response rating,[15]; [22],0
same,"Plant response rating, Blackgrass",[15]; [28],0
same,"Plant response rating, Blackgrass",[15]; [29],2
same,Blackgrass plant response rating,[15]; [25],0
same,Blackgrass plant response rating,[15]; [27],0
same,B. signalgrass plant response rating,[16]; [32],0
same,B. signalgrass plant response rating,[16]; [31],0
same,B. signalgrass plant response rating,[16]; [22],0
same,"Plant response rating, B. signalgrass",[16]; [28],0
same,"Plant response rating, B. signalgrass",[16]; [29],0
same,B. signalgrass plant response rating,[16]; [33],0
same,B. signalgrass plant response rating,"[16]; Rate 500 g/ha, Postemergence, scale of 0 to 10 where 0 is no effect and 10 is complete control",0
